Source: US20070244107A1, “Method of Treating Atherosclerosis, Dyslipidemias and Related Conditions” (priority 2004, published 2007)
Entries after “also recorded” stand apart in the source; their conditions may differ.

Test system: male C57B16 mice
Assay: Flushing via laser Doppler procedure in mice
Type: in vivo
Conditions: relative to nicotinic acid; mouse model
Experimental: To measure flushing, male C57B16 mice (approx. 25 g) are anesthetized using 10 mg/mkg Nembutal sodium. After ten minutes the animal is placed under the laser and the ear is folded back to expose the ventral side. The laser is positioned in the center of the ear and focused to an intensity of 8.4-9.0 V (which is generally approx. 4.5 cm above the ear). Data acquisition is initiated with a 15 by 15 image format, auto interval, 60 images and a 20 sec time delay with a medium resolution. Test compounds are administered following the 10th image via injection into the peritoneal space. Images 1-10 are considered the animal's baseline and data is normalized to an average of the baseline mean intensities.

## C1Cc2[nH]nc(-c3nnn[nH]3)c2C1 [compound of formula I, 3-(2H-tetrazol-5-yl)-1,4,5,6-tetrahydrocyclopentapyrazole]
  flushing effect: reduced flushing effect relative to nicotinic acid; also recorded: reduced flushing effect relative to nicotinic acid, but flushing is not completely eliminated
